Legend:
Type in all cases: physicochemical
[1] = Solubility in solvents
Procedure: (§1) Cefdinir, calcium salt pentahydrate is stable at temperatures between about 25° C. and about 55° C.

[2] = Stability to temperature; conditions: temperatures between about 25° C. and about 55° C.
Procedure: as §1

[3] = Moisture Sorption/Desorption
Procedure: as §1

Compound: C=CC1=C(C(=O)[O-])N2C(=O)[C@@H](NC(=O)/C(=N\O)c3csc(N)n3)[C@H]2SC1.C=CC1=C(C(=O)[O-])N2C(=O)[C@@H](NC(=O)/C(=N\O)c3csc(N)n3)[C@H]2SC1.O.O.O.O.O.[Ca+2] (single isomer, unassigned) [Cefdinir, calcium salt pentahydrate, calcium (6R-(6α,7β(Z)))-7-(((2-amino-1,3-thiazol-4-yl)(hydroxyimino)acetyl)amino)-3-ethenyl-8-oxo-5-thia-1-azabicyclo[4.2.0]oct-2-ene-2-carboxylate (cefdinir, calcium salt, syn-isomer) pentahydrate]
- solubility in acetone ([1]; acetone): less than 1 mg/mL
- solubility in acetonitrile ([1]; acetonitrile): less than 1 mg/mL
- solubility in dichloromethane ([1]; dichloromethane): less than 1 mg/mL
- solubility in dimethylsulfoxide ([1]; dimethylsulfoxide): greater than 96 mg/mL
- solubility in ethanol ([1]; ethanol): less than 1 mg/mL
- solubility in methanol ([1]; methanol): less than 1 mg/mL
- solubility in water ([1]; water): about 3 mg/mL
- stability at temperature [2]: stable
- Weight ([3]; Time 0.1 min, 24.9 ° C., Rel. Humid. 51.63 (start)): 6.2888 mg
- Weight ([3]; Time 32.6 min, 25.0 ° C., Rel. Humid. 4.83): 6.2448 mg
- Weight ([3]; Time 48.6 min, 25.0 ° C., Rel. Humid. 14.82): 6.2605 mg
- Weight ([3]; Time 61.7 min, 25.0 ° C., Rel. Humid. 24.85): 6.2704 mg
- Weight ([3]; Time 74.6 min, 25.0 ° C., Rel. Humid. 34.82): 6.2782 mg
- Weight ([3]; Time 87.6 min, 24.9 ° C., Rel. Humid. 44.75): 6.2849 mg
- Weight ([3]; Time 100.6 min, 25.0 ° C., Rel. Humid. 54.93): 6.2910 mg
- Weight ([3]; Time 113.6 min, 25.0 ° C., Rel. Humid. 64.86): 6.2957 mg
- Weight ([3]; Time 125.2 min, 25.0 ° C., Rel. Humid. 74.81): 6.3005 mg
- Weight ([3]; Time 138.9 min, 25.0 ° C., Rel. Humid. 84.80): 6.3064 mg
- Weight ([3]; Time 220.7 min, 25.1 ° C., Rel. Humid. 94.58): 6.3638 mg
- Weight ([3]; Time 241.5 min, 25.1 ° C., Rel. Humid. 85.41 (desorption)): 6.3265 mg
- Weight ([3]; Time 256.2 min, 25.1 ° C., Rel. Humid. 75.18 (desorption)): 6.3087 mg
- Weight ([3]; Time 271.2 min, 25.1 ° C., Rel. Humid. 65.07 (desorption)): 6.3015 mg
- Weight ([3]; Time 284.1 min, 25.1 ° C., Rel. Humid. 55.11 (desorption)): 6.2965 mg
- Weight ([3]; Time 300.4 min, 25.1 ° C., Rel. Humid. 45.16 (desorption)): 6.2899 mg
- Weight ([3]; Time 313.1 min, 25.1 ° C., Rel. Humid. 35.08 (desorption)): 6.2827 mg
- Weight ([3]; Time 326.1 min, 25.0 ° C., Rel. Humid. 25.12 (desorption)): 6.2745 mg
- Weight ([3]; Time 338.7 min, 25.0 ° C., Rel. Humid. 15.13 (desorption)): 6.2650 mg
- Weight ([3]; Time 360.9 min, 25.0 ° C., Rel. Humid. 5.03 (desorption)): 6.2484 mg

Reference: patent publication US20070208173A1, “CRYSTALLINE HYDRATES OF CEFDINIR CALCIUM SALT” (priority 2006, published 2007)
